From ChEMBL document CHEMBL1201862, “PubChem BioAssay data set” (2004)
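1) Cells in 96-well plates. 2) Compound, 48 h, 5 concentrations. 3) Linear interpolation between surrounding doses. 4) Unreached endpoint = highest concentration. GI50 marks 50% less growth.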 The source made the active and inactive calls. No stated cut-off is given here; in the data, active = GI50 up to about 1.1 µM and inactive = higher.

Tests used:
Experiment in all cases: NCI-60 cell line screen, 48 h
[1] = test system: MOLT-4
[2] = test system: PC-3
[3] = test system: TK-10
[4] = test system: RPMI-8226
[5] = test system: UO-31
[6] = test system: LOX IMVI
[7] = test system: HL-60
[8] = test system: MDA-MB-435
[9] = test system: NCI-H460
[10] = test system: SW-620
[11] = test system: MDA-MB-231
[12] = test system: OVCAR-4
[13] = test system: SF-295
[14] = test system: OVCAR-3
[15] = test system: UACC-257
[16] = test system: SR
[17] = test system: SF-539
[18] = test system: SN12C

Structure (SMILES)	GI50 [1]	GI50 [2]	GI50 [3]	GI50 [4]	GI50 [5]	GI50 [6]	GI50 [7]	GI50 [8]	GI50 [9]	GI50 [10]	GI50 [11]	GI50 [12]	GI50 [13]	GI50 [14]	GI50 [15]	GI50 [16]	GI50 [17]	GI50 [18]
CC1=C2CC3=C(C)C(=O)O[C@H]3C[C@@H](C)[C@@H]2CC1 [AMERICANOLIDE D]	51.9 µM (inactive)	> 100 µM (inactive)	> 100 µM (inactive)	> 100 µM (inactive)	> 100 µM (inactive)	> 100 µM (inactive)	80.5 µM (inactive)	> 100 µM (inactive)	> 100 µM (inactive)	> 100 µM (inactive)	> 100 µM (inactive)	> 100 µM (inactive)	> 100 µM (inactive)	> 100 µM (inactive)	> 100 µM (inactive)	62.1 µM (inactive)	–	–
Cc1ccc(S(=O)(=O)N/N=C(\c2nc3ccc([N+](=O)[O-])cc3nc2O)C(O)c2ccccc2Cl)cc1 (stereo not drawn)	> 100 µM (inactive)	–	> 100 µM (inactive)	61.1 µM (inactive)	> 100 µM (inactive)	> 100 µM (inactive)	27.5 µM (inactive)	–	> 100 µM (inactive)	> 100 µM (inactive)	–	> 100 µM (inactive)	> 100 µM (inactive)	> 100 µM (inactive)	> 100 µM (inactive)	> 100 µM (inactive)	> 100 µM (inactive)	> 100 µM (inactive)
COC(=O)CCSC(=O)Nc1ccccc1Cl	> 100 µM (inactive)	–	> 100 µM (inactive)	> 100 µM (inactive)	> 100 µM (inactive)	> 100 µM (inactive)	63.1 µM (inactive)	–	> 100 µM (inactive)	> 100 µM (inactive)	–	> 100 µM (inactive)	> 100 µM (inactive)	> 100 µM (inactive)	> 100 µM (inactive)	> 100 µM (inactive)	> 100 µM (inactive)	> 100 µM (inactive)
COc1ccc(/N=N/c2c(-c3ccccc3)nn(C(=O)CC(=O)Nc3cccc(Cl)c3)c2-c2ccccc2)cc1	70.1 µM (inactive)	–	72.9 µM (inactive)	> 100 µM (inactive)	5.11 µM (inactive)	> 100 µM (inactive)	> 100 µM (inactive)	–	49.3 µM (inactive)	> 100 µM (inactive)	–	67.9 µM (inactive)	26.9 µM (inactive)	29.6 µM (inactive)	> 100 µM (inactive)	–	68.9 µM (inactive)	> 100 µM (inactive)
CSc1nc(NC2OCC(O)C(O)C2O)c(N)c(=O)[nH]1 (stereo not drawn)	> 100 µM (inactive)	–	–	> 100 µM (inactive)	> 100 µM (inactive)	> 100 µM (inactive)	> 100 µM (inactive)	–	> 100 µM (inactive)	> 100 µM (inactive)	–	> 100 µM (inactive)	> 100 µM (inactive)	> 100 µM (inactive)	> 100 µM (inactive)	–	> 100 µM (inactive)	> 100 µM (inactive)
CC1(C)C(O)OC(O)C1(C)C (stereo not drawn)	49.2 µM (inactive)	–	> 100 µM (inactive)	70 µM (inactive)	57.3 µM (inactive)	46.9 µM (inactive)	42.9 µM (inactive)	–	> 100 µM (inactive)	49.7 µM (inactive)	–	> 100 µM (inactive)	> 100 µM (inactive)	30.9 µM (inactive)	34.5 µM (inactive)	–	–	82.2 µM (inactive)
O=C(CC1(O)C(=O)Nc2c(Cl)cc(Cl)cc21)c1ccc(F)cc1 (stereo not drawn)	–	–	> 100 µM (inactive)	24.9 µM (inactive)	42.1 µM (inactive)	24.7 µM (inactive)	–	–	38.8 µM (inactive)	43.7 µM (inactive)	–	27.8 µM (inactive)	34.7 µM (inactive)	37.6 µM (inactive)	27.6 µM (inactive)	29.2 µM (inactive)	28.4 µM (inactive)	28.4 µM (inactive)
COc1ccc(C(c2ccc(C(C)C)cc(OC)c2=O)c2ccc(C(C)C)cc(OC)c2=O)cc1	7.53 µM (inactive)	–	19.6 µM (inactive)	5.06 µM (inactive)	14.3 µM (inactive)	15.3 µM (inactive)	12.2 µM (inactive)	–	14.6 µM (inactive)	15.5 µM (inactive)	–	12.2 µM (inactive)	16.2 µM (inactive)	13.2 µM (inactive)	15.5 µM (inactive)	10.4 µM (inactive)	17 µM (inactive)	16.1 µM (inactive)
CC(=O)OC[C@@H]1[C@H]2CC(=O)O[C@H]2C[C@H]1OC(C)=O	> 100 µM (inactive)	–	> 100 µM (inactive)	> 100 µM (inactive)	> 100 µM (inactive)	> 100 µM (inactive)	> 100 µM (inactive)	–	> 100 µM (inactive)	> 100 µM (inactive)	–	> 100 µM (inactive)	> 100 µM (inactive)	> 100 µM (inactive)	> 100 µM (inactive)	> 100 µM (inactive)	> 100 µM (inactive)	> 100 µM (inactive)
C=CCC1(CN(C)C)CC/C(=C\c2ccc(Cl)cc2)C1=O (stereo not drawn)	17.9 µM (inactive)	–	> 100 µM (inactive)	17 µM (inactive)	41.5 µM (inactive)	23.8 µM (inactive)	29.9 µM (inactive)	–	20.2 µM (inactive)	26.9 µM (inactive)	–	31 µM (inactive)	35.5 µM (inactive)	36.1 µM (inactive)	25.5 µM (inactive)	0.0973 µM (active)	> 54.1 µM (inactive)	70.1 µM (inactive)
C=C1C(=O)OC2C=C(CCC(C)=O)C(C)C(OC(C)=O)CC12 (stereo not drawn)	6.1 µM (inactive)	–	12 µM (inactive)	4.52 µM (inactive)	13.6 µM (inactive)	1.61 µM (inactive)	3.33 µM (inactive)	–	18.7 µM (inactive)	0.313 µM (active)	–	13.1 µM (inactive)	17.7 µM (inactive)	12.7 µM (inactive)	–	11.8 µM (inactive)	15.2 µM (inactive)	15.7 µM (inactive)
C[C@]12CC[C@H](OCCC#N)CC1=CC[C@@H]1C2CC[C@]2(C)/C(=N/OCCC#N)CCC12 (stereo partly drawn)	> 100 µM (inactive)	–	> 44.4 µM (inactive)	> 100 µM (inactive)	> 100 µM (inactive)	5.7 µM (inactive)	2.48 µM (inactive)	–	97.7 µM (inactive)	> 100 µM (inactive)	–	29 µM (inactive)	17.2 µM (inactive)	> 21 µM (inactive)	6.62 µM (inactive)	4.43 µM (inactive)	55 µM (inactive)	> 100 µM (inactive)
COC1(C)C(=O)N2C1N(C(=O)OCc1ccccc1)CC2(C)C (stereo not drawn)	> 100 µM (inactive)	–	> 100 µM (inactive)	> 100 µM (inactive)	> 100 µM (inactive)	> 100 µM (inactive)	> 100 µM (inactive)	–	> 100 µM (inactive)	> 100 µM (inactive)	–	> 100 µM (inactive)	> 100 µM (inactive)	> 100 µM (inactive)	> 100 µM (inactive)	> 100 µM (inactive)	> 100 µM (inactive)	> 100 µM (inactive)
CCCCCCCCCCOC(=O)NCCC	17.2 µM (inactive)	–	34.5 µM (inactive)	17.9 µM (inactive)	16.2 µM (inactive)	18.2 µM (inactive)	13.9 µM (inactive)	–	25.8 µM (inactive)	48.6 µM (inactive)	–	21.6 µM (inactive)	38.5 µM (inactive)	33.3 µM (inactive)	30.2 µM (inactive)	–	59.7 µM (inactive)	28 µM (inactive)
Cc1[nH]c2ccccc2c1C(=O)/C=C/c1ccccc1O	> 100 µM (inactive)	–	> 100 µM (inactive)	–	> 100 µM (inactive)	> 100 µM (inactive)	> 100 µM (inactive)	–	> 100 µM (inactive)	> 100 µM (inactive)	–	> 100 µM (inactive)	> 100 µM (inactive)	> 100 µM (inactive)	> 100 µM (inactive)	> 100 µM (inactive)	–	> 100 µM (inactive)
Cc1ccc(/C=N/NS(=O)(=O)c2ccccc2)cc1	> 100 µM (inactive)	–	> 100 µM (inactive)	> 100 µM (inactive)	> 100 µM (inactive)	> 100 µM (inactive)	> 100 µM (inactive)	–	> 100 µM (inactive)	> 100 µM (inactive)	–	> 100 µM (inactive)	74 µM (inactive)	> 100 µM (inactive)	> 100 µM (inactive)	> 100 µM (inactive)	> 100 µM (inactive)	> 100 µM (inactive)
COCCOCC(=O)N(CCn1ccc(NC(c2ccccc2)(c2ccccc2)c2ccccc2)nc1=O)CCn1cnc2nc(N)[nH]c(=O)c21	> 100 µM (inactive)	–	> 100 µM (inactive)	> 100 µM (inactive)	> 100 µM (inactive)	> 100 µM (inactive)	> 100 µM (inactive)	–	> 100 µM (inactive)	> 100 µM (inactive)	–	> 100 µM (inactive)	> 100 µM (inactive)	> 100 µM (inactive)	> 100 µM (inactive)	> 100 µM (inactive)	> 100 µM (inactive)	> 100 µM (inactive)
Cc1cc(C)nc(NS(=O)(=O)c2ccc(NC(=O)c3cccc4cc5ccccc5nc34)cc2)n1	19.6 µM (inactive)	–	50.2 µM (inactive)	21.4 µM (inactive)	53.8 µM (inactive)	22.9 µM (inactive)	–	–	34 µM (inactive)	32.7 µM (inactive)	–	32.8 µM (inactive)	30.1 µM (inactive)	24.8 µM (inactive)	37.3 µM (inactive)	–	15.3 µM (inactive)	28.5 µM (inactive)
